The data set in a line: Solubility in water. In kind it is physicochemical.

For the compound `CC(C)(C)CC(C)(C)c1cc(Cc2cc(C(C)(C)CC(C)(C)C)cc(-n3nc4ccccc4n3)c2O)c(O)c(-n2nc3ccccc3n2)c1` [2,2′-methylene bis[6-(2H-benzotriazol-2-yl)-4-(1,1,3,3-tetramethylbutyl)phenol]], the solubility in water entry is recorded as “ng/L range”.

The values are drawn from patent US20250143990A1, “SKIN MICROBIOME FRIENDLY SUNSCREENS” (BASF SE, priority 2022, published 2025).
